System: HIV
Assay: MT4 assay: antiviral HIV activity (cell protection, cell titer glo readout at 96 hours)
Type: cell-based
Details: Human immunodeficiency virus 1, MT4, 96 h, MT4 cells, cell titer glo readout at 96 hours, 10 point dose response; read-out: HIV MT4 Assay IC50
Experimental: Antiviral HIV activity and cytotoxicity values for compounds of the invention from Table 1 were measured in parallel in the HTLV-1 transformed cell line MT-4 based on the method previously described (Hazen et al., 2007, In vitro antiviral activity of the novel, tyrosyl-based human immunodeficiency virus (HIV) type 1 protease inhibitor brecanavir (GW640385) in combination with other antiretrovirals and against a panel of protease inhibitor-resistant HIV (Hazen et al., “In vitro antiviral activity of the novel, tyrosyl-based human immunodeficiency virus (HIV) type 1 protease inhibitor brecanavir (GW640385) in combination with other antiretrovirals and against a panel of protease inhibitor-resistant HIV”, Antimicrob. Agents Chemother. 2007, 51: 3147-3154; and Pauwels et al., “Sensitive and rapid assay on MT-4 cells for the detection of antiviral compounds against the AIDS virus”, J. of Virological Methods 1987, 16: 171-185).
Luciferase activity was measured 96 hours later by adding a cell titer glo (Promega, Madison, Wis.). Percent inhibition of cell protection data was plotted relative to no compound control. Under the same condition, cytotoxicity of the compounds was determined using cell titer Glo™ (Promega, Madison, Wis.). IC50s were determined from a 10 point dose response curve using 3-4-fold serial dilution for each compound, which spans a concentration range >1000 fold.
These values are plotted against the molar compound concentrations using the standard four parameter logistic equation:
y=((Vmax*x̂n)/(K̂n+x̂n))+Y2
Y2=minimum y n=slope factor
Vmax=maximum y x=compound concentration [M]

Structure (SMILES)	IC50 [nM]
COCCN1CCCN(c2cc(-c3cc4c(-c5cc(F)c6c(c5C)CCCO6)c([C@H](OC(C)(C)C)C(=O)O)c(C)nc4n3C)ccn2)CC1 (atropisomer, axis not shown) [Example 103]	45
Cc1nc2c(cc(-c3ccnc(N4CCCN(C(=O)C5CC5)CC4)c3)n2C)c(-c2cc(F)c3c(c2C)CCCO3)c1[C@H](OC(C)(C)C)C(=O)O (atropisomer, axis not shown) [Example 104]	37.5
Cc1nc2c(cc(-c3ccnc(N4CCc5cc(-n6c(C)ccc6C)ccc5C4)c3)n2C)c(-c2cc(F)c3c(c2C)CCCO3)c1[C@H](OC(C)(C)C)C(=O)O (atropisomer, axis not shown) [Example 106]	45
Cc1nc2c(cc(-c3ccnc(N4CCCN(C(=O)C5CCOCC5)CC4)c3)n2C)c(-c2cc(F)c3c(c2C)CCCO3)c1[C@H](OC(C)(C)C)C(=O)O (atropisomer, axis not shown) [Example 108]	131
COc1ccccc1[C@H]1[C@@H]2CN(c3cc(-c4cc5c(-c6cc(F)c7c(c6C)CCCO7)c([C@H](OC(C)(C)C)C(=O)O)c(C)nc5n4C)ccn3)C[C@@H]21 (atropisomer, axis not shown) [Example 109]	121
Cc1nc2c(cc(-c3ccnc(N4C[C@@H]5CC[C@@H](C5)C4)c3)n2C)c(-c2cc(F)c3c(c2C)CCCO3)c1[C@H](OC(C)(C)C)C(=O)O (atropisomer, axis not shown) [Example 111]	27.5
Cc1nc2c(cc(-c3ccnc(N4CCCN(C5CCOCC5)CC4)c3)n2C)c(-c2cc(F)c3c(c2C)CCCO3)c1[C@H](OC(C)(C)C)C(=O)O (atropisomer, axis not shown) [Example 113]	20
Cc1nc2c(cc(-c3ccnc(N4CCCN(S(=O)(=O)C5CC5)CC4)c3)n2C)c(-c2cc(F)c3c(c2C)CCCO3)c1[C@H](OC(C)(C)C)C(=O)O (atropisomer, axis not shown) [Example 114]	25
Cc1nc2c(cc(-c3ccnc(N4CCN(C(=O)N(C)C)CC4)c3)n2C)c(-c2cc(F)c3c(c2C)CCCO3)c1[C@H](OC(C)(C)C)C(=O)O (atropisomer, axis not shown) [Example 115]	15.6
Cc1nc2c(cc(-c3ccnc(N4CCCN(C5CCC5)CC4)c3)n2C)c(-c2cc(F)c3c(c2C)CCCO3)c1[C@H](OC(C)(C)C)C(=O)O (atropisomer, axis not shown) [Example 117]	39.1
Cc1nc2c(cc(-c3ccnc(N4CCN(C5CC5)CC4)c3)n2C)c(-c2cc(F)c3c(c2C)CCCO3)c1[C@H](OC(C)(C)C)C(=O)O (atropisomer, axis not shown) [Example 118]	15
COCCS(=O)(=O)N1CCCN(c2cc(-c3cc4c(-c5cc(F)c6c(c5C)CCCO6)c([C@H](OC(C)(C)C)C(=O)O)c(C)nc4n3C)ccn2)CC1 (atropisomer, axis not shown) [Example 119]	20
Cc1nc2c(cc(-c3ccnc(N4CC[C@@H](N(C)C)C4)c3)n2C)c(-c2cc(F)c3c(c2C)CCCO3)c1[C@H](OC(C)(C)C)C(=O)O (atropisomer, axis not shown) [Example 120]	45
Cc1nc2c(cc(-c3ccnc(N4C[C@@H]5CC[C@H]4CN(C4COC4)C5)c3)n2C)c(-c2cc(F)c3c(c2C)CCCO3)c1[C@H](OC(C)(C)C)C(=O)O (atropisomer, axis not shown) [Example 122]	11.6
COCCC(=O)N1CCCN(c2cc(-c3cc4c(-c5cc(F)c6c(c5C)CCCO6)c([C@H](OC(C)(C)C)C(=O)O)c(C)nc4n3C)ccn2)CC1 (atropisomer, axis not shown) [Example 125]	41.5
Cc1nc2c(cc(-c3ccnc(N4CCN(C5CCOCC5)CC4)c3)n2C)c(-c2cc(F)c3c(c2C)CCCO3)c1[C@H](OC(C)(C)C)C(=O)O (atropisomer, axis not shown) [Example 127]	3.6
Cc1nc2c(cc(-c3ccnc(N4CCCN(C5(C)COC5)CC4)c3)n2C)c(-c2cc(F)c3c(c2C)CCCO3)c1[C@H](OC(C)(C)C)C(=O)O (atropisomer, axis not shown) [Example 128]	10.3
Cc1nc2c(cc(-c3cnn(CC4CN(C5CCOCC5)C4)c3)n2C)c(-c2cc(F)c3c(c2C)CCCO3)c1[C@H](OC(C)(C)C)C(=O)O (atropisomer, axis not shown) [Example 130]	291
Cc1nc2c(cc(-c3ccc(F)cc3)n2C)c(-c2cc(F)c3c(c2C)CCCO3)c1[C@H](OC(C)(C)C)C(=O)O (atropisomer, axis not shown) [Example 131]	89.5
CCCn1cc(-c2cc3c(-c4cc(F)c5c(c4C)CCCO5)c([C@H](OC(C)(C)C)C(=O)O)c(C)nc3n2C)cn1 (atropisomer, axis not shown) [Example 132]	32.9
Cc1nc2c(cc(-c3cnn(C4CCN(C5COC5)CC4)c3)n2C)c(-c2cc(F)c3c(c2C)CCCO3)c1[C@H](OC(C)(C)C)C(=O)O (atropisomer, axis not shown) [Example 133]	104
Cc1nc2c(cc(-c3ccc4c(cnn4C)c3)n2C)c(-c2cc(F)c3c(c2C)CCCO3)c1[C@H](OC(C)(C)C)C(=O)O (atropisomer, axis not shown) [Example 134]	39.2
Cc1nc2c(cc(-c3ccc4c(c3)N(C)CCO4)n2C)c(-c2cc(F)c3c(c2C)CCCO3)c1[C@H](OC(C)(C)C)C(=O)O (atropisomer, axis not shown) [Example 135]	126
Cc1nc2c(cc(-c3ccc4nccn4c3)n2C)c(-c2cc(F)c3c(c2C)CCCO3)c1[C@H](OC(C)(C)C)C(=O)O (atropisomer, axis not shown) [Example 136]	42.5
Cc1nc2c(cc(-c3ccc4c(c3)CCN(C)C4=O)n2C)c(-c2cc(F)c3c(c2C)CCCO3)c1[C@H](OC(C)(C)C)C(=O)O (atropisomer, axis not shown) [Example 137]	43.8
Cc1nc2c(cc(-c3ccnc(C(=O)N4CCN(S(C)(=O)=O)CC4)c3)n2C)c(-c2cc(F)c3c(c2C)CCCO3)c1[C@H](OC(C)(C)C)C(=O)O (atropisomer, axis not shown) [Example 146]	487

Now from value to compound:

IC50 [nM]	Structure (SMILES)
45.3	Cc1nc2c(cc(-c3ccnc(C(=O)Nc4cnn(C)c4)c3)n2C)c(-c2cc(F)c3c(c2C)CCCO3)c1[C@H](OC(C)(C)C)C(=O)O (atropisomer, axis not shown) [Example 147]
40.1	Cc1nc2c(cc(-c3ccnc(C(=O)Nc4ccnn4C)c3)n2C)c(-c2cc(F)c3c(c2C)CCCO3)c1[C@H](OC(C)(C)C)C(=O)O (atropisomer, axis not shown) [Example 148]
219	Cc1nc2c(cc(-c3ccnc(C(=O)NCCN4CCCC4=O)c3)n2C)c(-c2cc(F)c3c(c2C)CCCO3)c1[C@H](OC(C)(C)C)C(=O)O (atropisomer, axis not shown) [Example 149]
9360	Cc1nc2c(cc(-c3ccnc(C(=O)NCc4c[nH]cn4)c3)n2C)c(-c2cc(F)c3c(c2C)CCCO3)c1[C@H](OC(C)(C)C)C(=O)O (atropisomer, axis not shown) [Example 150]
43.6	Cc1nc2c(cc(-c3ccnc(C(=O)NCc4ccc(F)cc4)c3)n2C)c(-c2cc(F)c3c(c2C)CCCO3)c1[C@H](OC(C)(C)C)C(=O)O (atropisomer, axis not shown) [Example 151]
72.4	Cc1nc2c(cc(-c3ccnc(C(=O)NC4CCCCC4)c3)n2C)c(-c2cc(F)c3c(c2C)CCCO3)c1[C@H](OC(C)(C)C)C(=O)O (atropisomer, axis not shown) [Example 152]
44	Cc1nc2c(cc(-c3ccnc(C(=O)Nc4ccn(C)n4)c3)n2C)c(-c2cc(F)c3c(c2C)CCCO3)c1[C@H](OC(C)(C)C)C(=O)O (atropisomer, axis not shown) [Example 153]
81.9	Cc1nc2c(cc(-c3ccnc(C#CC(C)(C)N)c3)n2C)c(-c2cc(F)c3c(c2C)CCCO3)c1[C@H](OC(C)(C)C)C(=O)O (atropisomer, axis not shown) [Example 155]
39.8	Cc1nc2c(cc(-c3ccnc(C#CC4(N)CCCCC4)c3)n2C)c(-c2cc(F)c3c(c2C)CCCO3)c1[C@H](OC(C)(C)C)C(=O)O (atropisomer, axis not shown) [Example 156]
30	Cc1nc2c(cc(-c3ccnc(C#CCN4CCCC4)c3)n2C)c(-c2cc(F)c3c(c2C)CCCO3)c1[C@H](OC(C)(C)C)C(=O)O (atropisomer, axis not shown) [Example 157]
45	Cc1nc2c(cc(-c3ccnc(C#CCN4CCOCC4)c3)n2C)c(-c2cc(F)c3c(c2C)CCCO3)c1[C@H](OC(C)(C)C)C(=O)O (atropisomer, axis not shown) [Example 158]
27.9	Cc1nc2c(cc(-c3ccnc(C#CC4(O)CCCCC4)c3)n2C)c(-c2cc(F)c3c(c2C)CCCO3)c1[C@H](OC(C)(C)C)C(=O)O (atropisomer, axis not shown) [Example 159]
150	Cc1nc2c(cc(-c3ccnc(C#CCN4CCN(C)CC4)c3)n2C)c(-c2cc(F)c3c(c2C)CCCO3)c1[C@H](OC(C)(C)C)C(=O)O (atropisomer, axis not shown) [Example 160]
